Data on 16 compounds can be found in US20150344466A1 (SUMITOMO CHEMICAL COMPANY, LIMITED, priority 2013, published 2015).

Common to all, as to assay type: in vivo
The test system of experiment [1] is Blattella germanica. As to the kind of experiment: Knockdown spray test on Blattella germanica, 2.0% w/v oil formulation (Test Example 1). Conditions: topical, 0.25 h, active ingredient 2.0% w/v, 1.5 ml sprayed, within 15 minutes, read-out: knockdown rate of the test insects within 15 minutes. The essentials:
(§1)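 Ten German cockroaches (5 males, 5 females) in a mesh-bottomed, butter-walled container were sprayed with 1.5 ml test solution from 60 cm at 0.42 kg/cm^2 inside a chamber.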

Experiment [2] has as its system Musca domestica. As to the kind of experiment: Knockdown spray test on adult Musca domestica (Test Example 3). Conditions: topical, 0.25 h, active ingredient 2.0% w/v, 0.5 ml sprayed, within 15 minutes, read-out: knockdown rate of the test insects within 15 minutes. Summed up: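 Ten adult house flies (5 male, 5 female) in a gauze-covered cup sprayed with 0.5 ml test solution from 30 cm at 0.9 kg/cm^2 inside a chamber, then removed. Knocked-down flies counted at 2, 5 and 15 min and expressed as % of insects tested.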

Experiment [3] concerns Culex pipiens pallens. Nature of the experiment: Knockdown spray test on adult Culex pipiens pallens (Test Example 4). Particulars: topical, 0.25 h, active ingredient 0.1% w/v, 0.5 ml sprayed, within 15 minutes, read-out: knockdown rate of the test insects within 15 minutes. Summed up:
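Knockdown counts were taken 2, 5 and 15 min after spraying and expressed as percent of the 10 adults tested. For the spray, 0.5 ml of solution was applied by spray gun (0.4 kg/cm^2) from 30 cm above a gauze-covered cup in a test chamber; the cup was taken out right after spraying.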

In experiment [4] the test system is Culex pipiens pallens. As to the kind of experiment: Larvicidal test on Culex pipiens pallens, one day (Test Example 6). Particulars: 24 h; last-instar larvae of Culex pipiens pallens; 3.5 ppm in water; one day later; read-out: death rate. The procedure:
Each of the formulations of Compounds of Present Invention (39), (63), (71), (72), (92), (93), (95), (106), (150), (171), (170), (181), (182), (183), (187), (188), (189), (190), (191), (192), (200), (201), (201), (234), (246), (290) and (299) obtained in Formulation Example 15 was diluted with water, so as to have a concentration of the active ingredient of 500 ppm, to prepare a test drug solution.
20 last-instar larvae of Culex pipiens pallens were released into a liquid to which 0.7 ml of the above test drug solution was added to 100 ml of ion-exchanged water (a concentration of the active ingredient of 3.5 ppm). One day later, the life and death of the Culex pipiens pallens was examined, and the death rate was calculated. The death rate was calculated by the following equation.
(§2) Death rate (%)=(Number of dead insects/Number of tested insects)×100

Experiment [5] deals with Culex pipiens pallens. Nature of the experiment: Larvicidal test on Culex pipiens pallens, eight days (Test Example 7). Particulars: 192 h; last-instar larvae of Culex pipiens pallens; 3.5 ppm in water; eight days later; read-out: death rate. As to the method: 20 last-instar larvae of Culex pipiens pallens were released into a liquid to which 0.7 ml of the above test drug solution was added to 100 ml of ion-exchanged water (a concentration of the active ingredient of 3.5 ppm). Eight days later, the life and death of the Culex pipiens pallens was examined, and the death rate was calculated. The death rate was calculated by the following equation.
as §2

The test system of experiment [6] is Plutella xylostella. As to the kind of experiment: Foliar spray test on Plutella xylostella on cabbage (Test Example 10). Conditions: 120 h, third instar larvae of Plutella xylostella on cabbage, 500 ppm spray 20 ml/cup, after five days, read-out: controlling value. Summed up: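 Cabbage at the third–fourth true-leaf stage sprayed with test solution at 20 ml/cup, dried, then infested with 10 third-instar larvae. Insects counted after five days; controlling value (%) calculated from treated and non-treated counts before treatment and at observation.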

Experiment [7] deals with Blattella germanica. Nature of the experiment: Knockdown spray test on Blattella germanica, 0.1% w/v oil formulation (Test Example 2). Conditions: topical, 0.25 h, active ingredient 0.1% w/v, 1.5 ml sprayed, within 15 minutes, read-out: knockdown rate of the test insects within 15 minutes. The essentials: as §1
Experiment [8] relates to Musca domestica. As to the kind of experiment: Filter paper/sucrose bait death rate test on Musca domestica (Test Example 5). Conditions: female imagoes of Musca domestica, 0.7 ml on filter paper, after 24 hours. The essentials: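 Ten female imagoes were confined in a sealed cup over a filter paper treated with 0.7 ml of test solution and 30 mg sucrose bait. Mortality was scored at 24 h and expressed as percent of tested insects killed.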

The subject of experiment [9] is Spodoptera litura. Nature of the experiment: Foliar spray test on Spodoptera litura on cabbage (Test Example 11). Particulars: 96 h, fourth instar larvae of Spodoptera litura on cabbage, 500 ppm spray 20 ml/cup, after 4 days, read-out: controlling value. As to the method:
On the other hand, cabbage was planted in a polyethylene cup, and grown until the third-fourth true leaf was spread. The test spray solution was sprayed to the cabbage at a ratio of 20 ml/cup. After the drug solution sprayed orn the cabbage was dried, 10 fourth instar larvae of Spodoptera litura were allowed to parasitize the cabbage. After 4 days, the number of surviving Spodoptera litura on the cabbage leaves was examined, and the controlling value was calculated according to the following equation. Controlling value (%)={1−(Cb×Tai)/([…])}×100 In the equation, the symbols represent as follows. Cb: the number of insects in a non-treated section before treatment Cai: the number of insects in a non-treated section on observation Tb: the number of insects in a treated section before treatment Tai: the number of insects in a treated section on observation

`O=C(NCC1CCOC1)c1cc(COCc2ccc(C(F)(F)F)cc2)on1` (stereo not drawn) [(63), N-(tetrahydrofuran-3-ylmethyl)-5-(4-trifluoromethylbenzyloxymethyl)isoxazole-3-carboxamide]: the pest or weed control at 2 % strength in [1] and in experiment [2] was not below 80% in each case. The pest or weed control at 0.1 % strength in experiment [3] is not below 80%. In addition, the pest or weed control at 3.5 ppm in experiment [4] and in [5] was not below 90% in each case.

In the case of `O=C(NCC1CCOCC1)c1cc(COCc2ccc(Cl)cc2)on1` [(71), N-(tetrahydropyran-4-ylmethyl)-5-(4-chlorobenzyloxymethyl)isoxazole-3-carboxamide], the pest or weed control at 500 ppm in experiment [6] was not below 90%. In [3], the pest or weed control at 0.1 % strength was not below 80%. Besides, the pest or weed control at 3.5 ppm in experiment [4] is not below 90%.

Regarding `O=C(NCC1CCOC1)c1cc(COCc2ccc(Cl)c(Cl)c2)on1` (stereo not drawn) [(72), N-(tetrahydrofuran-3-ylmethyl)-5-(3,4-dichlorobenzyloxymethyl)isoxazole-3-carboxamide], the pest or weed control at 500 ppm is not below 90% in [6], not below 90% in experiment [8] and not below 80% in experiment [9]. The pest or weed control at 0.1 % strength in [7] and in [3] was not below 80% in each case. Besides, the pest or weed control at 3.5 ppm in experiment [4] is not below 90%.

For `O=C(NCC1CCOCC1)c1cc(COCc2ccc(Br)cc2)on1` [(92), N-(tetrahydropyran-4-ylmethyl)-5-(4-bromobenzyloxymethyl)isoxazole-3-carboxamide], the pest or weed control at 500 ppm in experiment [6] is not below 90%. Moreover, the pest or weed control at 0.1 % strength in experiment [7] and in experiment [3] was not below 80% each time. The pest or weed control at 3.5 ppm in experiment [4] and in experiment [5] was not below 90% each time.

With `O=C(NCC1CCOC1)c1cc(COCc2ccc(OC(F)(F)F)cc2)on1` (stereo not drawn) [(93), N-(tetrahydrofuran-3-ylmethyl)-5-(4-trifluoromethoxybenzyloxymethyl)isoxazole-3-carboxamide], the pest or weed control at 500 ppm in experiment [6] is not below 90%. Besides, the pest or weed control at 0.1 % strength in experiment [7] and in [3] was not below 80% each time. The pest or weed control at 3.5 ppm in experiment [4] and in [5] was not below 90% in each case.

Turning to `O=C(NCC1CCOC1)c1cc(COCc2ccc(SC(F)(F)F)cc2)on1` (stereo not drawn) [(95), N-(tetrahydrofuran-3-ylmethyl)-5-(4-trifluoromethylthiobenzyloxymethyl)isoxazole-3-carboxamide], in experiment [3], the pest or weed control at 0.1 % strength was not below 80%. The pest or weed control at 3.5 ppm in experiment [4] and in experiment [5] was not below 90% each time.

On to `O=C(NCC1CCOCC1)c1cc(COc2ccc(Cl)cc2)on1` [(181), N-(tetrahydropyran-4-ylmethyl)-5-[(4-chlorophenoxy)methyl]isoxazole-3-carboxamide], for which, in experiment [3], the pest or weed control at 0.1 % strength was not below 80%. Further, the pest or weed control at 3.5 ppm in [4] and in [5] was not below 90% throughout.

With `O=C(NCC1CCOC1)c1cc(COc2ccc(Cl)c(Cl)c2)on1` (stereo not drawn) [(182)], the pest or weed control at 0.1 % strength in [3] was not below 80%. Also, the pest or weed control at 3.5 ppm in experiment [4] and in experiment [5] was not below 90% throughout.

With `O=C(NCC1CCOCC1)c1cc(COc2ccc(Br)cc2)on1` [(187), N-(tetrahydropyran-4-ylmethyl)-5-(4-bromophenoxymethyl)isoxazole-3-carboxamide], the pest or weed control at 0.1 % strength in experiment [3] was not below 80%. In addition, the pest or weed control at 3.5 ppm in experiment [4] and in experiment [5] was not below 90% in each case.

On to `O=C(NCC1CCOC1)c1cc(COc2ccc(C(F)(F)F)cc2)on1` (stereo not drawn) [(188), N-(tetrahydrofuran-3-ylmethyl)-5-(4-trifluorophenoxymethyl) isoxazole-3-carboxamide], for which, in experiment [6], the pest or weed control at 500 ppm was not below 90%. Moreover, in experiment [3], the pest or weed control at 0.1 % strength was not below 80%. In addition, the pest or weed control at 3.5 ppm in experiment [4] and in experiment [5] was not below 90% each time.

Regarding `O=C(NCC1CCOCC1)c1cc(COc2ccc(C(F)(F)F)cc2)on1` [(189), N-(tetrahydropyran-4-ylmethyl)-5-(4-trifluoromethylphenoxymethyl)isoxazole-3-carboxamide], the pest or weed control at 0.1 % strength in experiment [3] was not below 80%. In addition, the pest or weed control at 3.5 ppm in experiment [4] and in experiment [5] was not below 90% throughout.

Consider `O=C(NCC1CCOC1)c1cc(COc2ccc(SC(F)(F)F)cc2)on1` (stereo not drawn) [(192), N-(tetrahydrofuran-3-ylmethyl)-5-(4-trifluoromethylthiophenoxymethyl)isoxazole-3-carboxamide], for which the pest or weed control at 0.1 % strength in [3] is not below 80%. The pest or weed control at 3.5 ppm in [4] and in experiment [5] was not below 90% in each case.

As to `O=C(NCC1CCOC1)c1cc(COc2cccc(OC(F)(F)F)c2)on1` (stereo not drawn) [(200), N-(tetrahydrofuran-3-ylmethyl)-5-(3-trifluoromethoxyphenoxymethyl)isoxazole-3-carboxamide], the pest or weed control at 0.1 % strength in experiment [7] and in [3] was not below 80% each time. For the same compound, the pest or weed control at 500 ppm in experiment [8] was not below 90%; in experiment [9], not below 80%. Also, the pest or weed control at 3.5 ppm in experiment [4] and in [5] was not below 90% in each case.

Consider `O=C(NCC1CCOC1)c1cc(CCCc2ccc(Cl)c(Cl)c2)on1` (stereo not drawn) [(246), N-(tetrahydrofuran-3-ylmethyl)-5-[3-(3,4-dichlorophenyl)propyl]isoxazole-3-carboxamide], for which the pest or weed control at 500 ppm in experiment [6] is not below 90%; in experiment [8], not below 90%; in experiment [9] it was not below 80%. In addition, the pest or weed control at 0.1 % strength in experiment [7] and in [3] was not below 80% each time. In [4], the pest or weed control at 3.5 ppm is not below 90%.

For the compound `Cc1c(C(=O)NCC2CCOC2)noc1CCCc1ccc2ccccc2c1` (stereo not drawn) [(290), N-(tetrahydrofuran-3-ylmethyl)-4-methyl-5-[3-(2-naphthyl)propyl]isoxazole-3-carboxamide], the pest or weed control at 500 ppm is not below 90% in [6], not below 90% in [8] and not below 80% in [9]. Also, the pest or weed control at 0.1 % strength in [7] and in [3] was not below 80% throughout. For the same compound, the pest or weed control at 2 % strength in experiment [1] and in experiment [2] was not below 80% in each case. For the same compound, the pest or weed control at 3.5 ppm in experiment [4] is not below 90%.

In the case of `O=C(NCC1CCOC1)c1cc(Cc2ccc3c(c2)OCO3)on1` (stereo not drawn) [(299), N-(tetrahydrofuran-3-ylmethyl)-5-(1,3-benzodioxolan-5-ylmethyl)isoxazole-3-carboxamide], the pest or weed control at 0.1 % strength in [3] was not below 80%. In experiment [8], this compound displayed a pest or weed control at 500 ppm not below 90%. Moreover, in [4], the pest or weed control at 3.5 ppm was not below 90%.
